EC50 data for 37 molecules are collected here from patent US9447044B2, “Thioaryl derivatives as GPR120 agonists” (LG LIFE SCIENCES LTD., priority 2012, dated 2016).

Some results are limits rather than exact numbers.

The first test has as its target T1, hGPR120 (Homo sapiens, UniProt Q5NUL3).
T1 construct: expressed in transfected cells; host or cells: CHO-K1
T1 sequence (Q5NUL3 1-361): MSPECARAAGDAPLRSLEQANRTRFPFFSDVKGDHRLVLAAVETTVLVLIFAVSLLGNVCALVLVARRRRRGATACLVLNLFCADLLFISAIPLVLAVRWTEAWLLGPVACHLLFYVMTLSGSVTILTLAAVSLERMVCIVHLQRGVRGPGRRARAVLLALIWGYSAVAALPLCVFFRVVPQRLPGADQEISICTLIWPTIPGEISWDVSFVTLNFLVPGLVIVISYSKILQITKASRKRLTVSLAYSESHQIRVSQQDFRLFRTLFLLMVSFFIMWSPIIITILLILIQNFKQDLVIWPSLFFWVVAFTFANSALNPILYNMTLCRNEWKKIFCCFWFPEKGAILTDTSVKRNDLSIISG
Put plainly: Measurement of activity of GPR120 agonist (cell-based assay), calcium fluorescence. To be noted: CHO-K1 cells expressing Ga16 and hGPR120; Calcium 5 dye fluorescence; activity class. The method, then: CHO-K1 cells expressing Ga16 and hGPR120 were dispensed into each well of a 96-well plate (3×10^4 cells/100 μl/well) and then incubated in 5% CO2, 37° C. incubator for 18 hours. Each well was treated with 100 μl of Calcium 5 dye (Molecular Devices) solution including 2% DMSO and then incubated in 5% CO2, 37° C. incubator for 1 hour. Serially diluted GPR120 agonists were prepared to a final concentration of 0.5% DMSO in a 96-well plate. Each well was treated with 50 μl of the agonist compounds using Plexstation II, and then fluorescence was measured at Ex 485 nm, Em 525 nm.
Fluorescence increased by the serially diluted GPR120 agonists is calculated as a relative percent (%) value based on the fluorescence represented by the treatment of 0.1% DMSO only. […] The calculation of measurement was carried out by using statistical software (Prizm).
Activity is denoted based on the following criteria: A=>20 μM, B=[…], C=2˜0.2 μM, D=<0.2 μM
As to `O=C(O)C1CC1c1ccc(OCc2cccnc2SCC2CC2)c(F)c1` (single isomer, unassigned) [Example 165, 2-[4-(2-cyclopropylmethylsulfanyl-pyridin-3-ylmethoxy)-3-fluoro-phenyl]-cyclopropane carboxylic acid], the concentration giving a half-maximal response (EC50) was less than 200 nM.

For the molecule `CC(C)Sc1cccc(COc2ccc(C3CC3C(=O)O)cc2F)n1` (single isomer, unassigned) [Example 166, 2-[3-fluoro-4-(6-isopropylsulfanyl-pyridin-2-ylmethoxy)-phenyl]-cyclopropane carboxylic acid], the EC50 was less than 200 nM.

As for `O=C(O)C1CC1c1ccc(OCc2cccc(SC3CCCC3)n2)c(F)c1` (single isomer, unassigned) [Example 168, 2-[4-(6-cyclopentylsulfanyl-pyridin-2-ylmethoxy)-3-fluoro-phenyl]-cyclopropane carboxylic acid], the EC50 is less than 200 nM.

On to `O=C(O)C1CC1c1ccc(OCc2cccnc2SC2CCC2)c(F)c1` (single isomer, unassigned) [Example 169, 2-[4-(2-cyclobutylsulfanyl-pyridin-3-ylmethoxy)-3-fluoro-phenyl]-cyclopropane carboxylic acid], for which the EC50 was less than 200 nM.

Regarding `CC(C)Sc1ncccc1COc1c(F)cc(CCC(=O)O)cc1F` [Example 1, 3-[3,5-difluoro-4-(2-isopropylsulfanyl-pyridin-3-ylmethoxy)-phenyl]-propionic acid], the EC50 was less than 200 nM.

`CC(C)Sc1ncccc1COc1ccc(CCC(=O)O)cc1` [Example 2, 3-[4-(2-isopropylsulfanyl-pyridin-3-ylmethoxy)-phenyl]-propionic acid]: the EC50 is less than 200 nM.

As for `Cc1cnc(SC(C)C)c(COc2ccc(CC(C)C(=O)O)cc2)c1` (stereo not shown) [Example 3, 3-[4-(2-isopropylsulfanyl-5-methyl-pyridin-3-ylmethoxy)-phenyl]-2-methyl-propionic acid], the EC50 fell in the range of 200 to 2000 nM.

With `CC(C)Sc1ncccc1COc1ccc(CC(C)C(=O)O)cc1` (stereo not shown) [Example 4, 3-[4-(2-isopropylsulfanyl-pyridin-3-ylmethoxy)-phenyl]-2-methyl-propionic acid], the concentration for a half-maximal effect (EC50) lay within 200 to 2000 nM.

Consider `Cc1cnc(SC(C)C)c(COc2ccc(CCC(=O)O)cc2)c1` [Example 5, 3-[4-(2-isopropylsulfanyl-5-methyl-pyridin-3-ylmethoxy)-phenyl]-propionic acid], for which the EC50 is less than 200 nM.

Regarding `CC(C)Sc1ncccc1COc1ccc(CCC(=O)O)cc1F` [Example 6, 3-[3-fluoro-4-(2-isopropylsulfanyl-pyridin-3-ylmethoxy)-phenyl]-propionic acid], the EC50 is less than 200 nM.

For the molecule `CC(C)Sc1ncccc1COc1ccc(CCC(=O)O)c(F)c1` [Example 7, 3-[2-fluoro-4-(2-isopropylsulfanyl-pyridin-3-ylmethoxy)-phenyl]-propionic acid], the EC50 was less than 200 nM.

For `Cc1ccc(COc2c(F)cc(CCC(=O)O)cc2F)c(SC(C)C)n1` [Example 9, 3-[3,5-difluoro-4-(2-isopropylsulfanyl-6-methyl-pyridin-3-ylmethoxy)-phenyl]-propionic acid], the EC50 is less than 200 nM.

`CCSc1ncccc1COc1c(F)cc(CCC(=O)O)cc1F` [Example 10, 3-[4-(2-ethylsulfanyl-pyridin-3-ylmethoxy)-3,5-difluoro-phenyl]-propionic acid]: the EC50 was less than 200 nM.

In the case of `CC(C)CSc1ncccc1COc1c(F)cc(CCC(=O)O)cc1F` [Example 11, 3-[3,5-difluoro-4-(2-isobutylsulfanyl-pyridin-3-ylmethoxy)-phenyl]-propionic acid], the EC50 was less than 200 nM.

For `CC(C)Sc1ncccc1COc1ccc(CCCC(=O)O)cc1` [Example 13, 4-[4-(2-isopropylsulfanyl-pyridin-3-ylmethoxy)-phenyl]-butyric acid], the EC50 is less than 200 nM.

In the case of `CCCSc1ncccc1COc1c(F)cc(CCC(=O)O)cc1F` [Example 14, 3-[3,5-difluoro-4-(2-propylsulfanyl-pyridin-3-ylmethoxy)-phenyl]-propionic acid], the EC50 is less than 200 nM.

Consider `O=C(O)CCc1cc(F)c(OCc2cccnc2Sc2ccccc2)c(F)c1` [Example 15, 3-[3,5-difluoro-4-(2-phenylsulfanyl-pyridin-3-ylmethoxy)-phenyl]-propionic acid], for which the concentration giving a half-maximal response (EC50) was 200 to 2000 nM.

`CC(C)(C)Sc1ncccc1COc1c(F)cc(CCC(=O)O)cc1F` [Example 16, 3-[4-(2-t-butylsulfanyl-pyridin-3-ylmethoxy)-3,5-difluoro-phenyl]-propionic acid]: the EC50 is less than 200 nM.

On to `O=C(O)CCc1cc(F)c(OCc2cccnc2SCC2CC2)c(F)c1` [Example 17, 3-[4-(2-cyclopropylmethylsulfanyl-pyridin-3-ylmethoxy)-3,5-difluoro-phenyl]-propionic acid], for which the EC50 is less than 200 nM.

Turning to `O=C(O)CCc1cc(F)c(OCc2cccnc2SCC(F)(F)F)c(F)c1` [Example 18, 3-{3,5-difluoro-4-[2-(2,2,2-trifluoro-ethylsulfanyl)-pyridin-3-ylmethoxy]-phenyl}-propionic acid], the EC50 was 200 to 2000 nM.

On to `CCC(C)Sc1ncccc1COc1c(F)cc(CCC(=O)O)cc1F` (stereo not shown) [Example 19, 3-[4-(2-sec-butylsulfanyl-pyridin-3-ylmethoxy)-3,5-difluoro-phenyl]-propionic acid], for which the EC50 is less than 200 nM.

Regarding `CC(C)Sc1nccnc1COc1c(F)cc(CCC(=O)O)cc1F` [Example 20, 3-[3,5-difluoro-4-(3-isopropylsulfanyl-pyrazin-2-ylmethoxy)-phenyl]-propionic acid], the EC50 lay within 200 to 2000 nM.

Consider `O=C(O)CCc1cc(F)c(OCc2cccnc2SC2CCCCC2)c(F)c1` [Example 22, 3-[4-(2-cyclohexylsulfanyl-pyridin-3-ylmethoxy)-3,5-difluoro-phenyl]-propionic acid], for which the EC50 fell in the range of 200 to 2000 nM.

For `O=C(O)CCc1cc(F)c(OCc2cccnc2SC2CCC2)c(F)c1` [Example 23, 3-[4-(2-cyclobutylsulfanyl-pyridin-3-ylmethoxy)-3,5-difluoro-phenyl]-propionic acid], the EC50 is less than 200 nM.

As for `CC(C)Sc1nccc(COc2c(F)cc(CCC(=O)O)cc2F)n1` [Example 24, 3-[3,5-difluoro-4-(2-isopropylsulfanyl-pyrimidin-4-ylmethoxy)-phenyl]-propionic acid], the EC50 was 200 to 2000 nM.

Regarding `CC(Cc1ccc(OCc2cccnc2SC2CCCC2)cc1)C(=O)O` (stereo not shown) [Example 25, 3-[4-(2-cyclopentylsulfanyl-pyridin-3-ylmethoxy)-phenyl]-2-methyl-propionic acid], the EC50 was less than 200 nM.

On to `CCCCSc1ncccc1COc1c(F)cc(CCC(=O)O)cc1F` [Example 26, 3-[4-(2-butylsulfanyl-pyridin-3-ylmethoxy)-3,5-difluoro-phenyl]-propionic acid], for which the EC50 was less than 200 nM.

Consider `O=C(O)CCc1cc(F)c(OCc2cccnc2SCCC(F)(F)F)c(F)c1` [Example 27, 3-{3,5-difluoro-4-[2-(3,3,3-trifluoro-propylsulfanyl)-pyridin-3-ylmethoxy]-phenyl}-propionic acid], for which the EC50 lay in the range of 200 to 2000 nM.

As for `CC(C)(C)CSc1ncccc1COc1c(F)cc(CCC(=O)O)cc1F` [Example 28, 3-{4-[2-(2,2-dimethyl-propylsulfanyl)-pyridin-3-ylmethoxy]-3,5-difluoro-phenyl}-propionic acid], the concentration giving a half-maximal response (EC50) was 200 to 2000 nM.

Take `O=C(O)CCc1ccc(OCc2cccc(SC3CCCC3)n2)cc1` [Example 29]: the EC50 was less than 200 nM.

As to `O=C(O)CCc1cc(F)c(OCc2cccc(SC3CCCC3)n2)c(F)c1` [Example 30], the EC50 is less than 200 nM.

Consider `O=C(O)CCc1cc(F)c(OCc2cccc(SC3CCCCC3)n2)c(F)c1` [Example 31], for which the EC50 was less than 200 nM.

As for `CCc1ccc(COc2c(F)cc(CCC(=O)O)cc2F)c(SC(C)C)n1` [Example 32], the EC50 lay in the range of 200 to 2000 nM.

Turning to `CC(C)Sc1cccc(COc2c(F)cc(CCC(=O)O)cc2F)n1` [Example 33, 3-[3,5-difluoro-4-(6-isopropylsulfanyl-pyridin-2-ylmethoxy)-phenyl]-propionic acid], the EC50 was less than 200 nM.

Still in this test, the particulars now being: CHO-K1 cells expressing Ga16 and hGPR120; Calcium 5 dye fluorescence; numeric value.
As to `O=C(O)C1CC1c1ccc(OCc2cccc(SC3CCC3)n2)c(F)c1` (single isomer, unassigned) [Example 167, 2-[4-(6-cyclobutylsulfanyl-pyridin-2-ylmethoxy)-3-fluoro-phenyl]-cyclopropane carboxylic acid], the EC50 came to 6 nM.

With `O=C(O)CCc1cc(F)c(OCc2cccnc2SC2CCCC2)c(F)c1` [Example 12, 3-[4-(2-cyclopentylsulfanyl-pyridin-3-ylmethoxy)-3,5-difluoro-phenyl]-propionic acid], the EC50 was 58 nM.

For the molecule `O=C(O)CCCc1ccc(OCc2cccnc2SC2CCCC2)cc1` [Example 21, 4-[4-(2-cyclopentylsulfanyl-pyridin-3-ylmethoxy)-phenyl]-butyric acid], the half-maximal effective concentration (EC50) is 68 nM.

For orientation: EC50 means the concentration that produces a half-maximal response.
